Experiments:
Assay type in all cases: cell-based
Details in all cases: read-out: Activity
[1] = Cytotoxicity against human Raji cells assessed as cell viability at 1000 molar ratio
[2] = Cytotoxicity against human Raji cells assessed as cell viability at 100 molar ratio
[3] = Cytotoxicity against human Raji cells assessed as cell viability at 500 molar ratio
[4] = Cytotoxicity against human Raji cells assessed as cell viability at 10 molar ratio

SMILES	viability at 1000 molar ratio [1]	viability at 100 molar ratio [2]	viability at 500 molar ratio [3]	viability at 10 molar ratio [4]
CC(=C/C=C/C(C)=C/C=C/C=C(C)/C=C/C=C(C)\C=C\[C@H]1[C@H](C)C(=O)CCC1(C)C)/C=C/[C@H]1[C@H](C)[C@@H](O)CCC1(C)C	70%	> 80%	> 80%	> 80%
CC(=C/C=C/C(C)=C/C=C/C=C(C)/C=C/C=C(C)\C=C\[C@H]1[C@H](C)[C@@H](O)CCC1(C)C)/C=C/[C@H]1[C@H](C)[C@@H](O)CCC1(C)C	70%	> 80%	70%	> 80%
CC1=C(/C=C/C(C)=C/C=C/C(C)=C/C=C/C=C(C)/C=C/C=C(C)/C=C/C2=C(C)CCCC2(C)C)C(C)(C)CCC1 [BETA CAROTENE]	70%	> 80%	> 80%	> 80%
CC(=C/C=C/C(C)=C/C=C/C=C(C)/C=C/C=C(C)\C=C\[C@H]1[C@H](C)C(=O)CCC1(C)C)/C=C/[C@H]1[C@H](C)C(=O)CCC1(C)C [CUCUMARIAXANTHIN A]	70%	> 80%	> 80%	> 80%

Source: ChEMBL document CHEMBL1151675, “Novel marine di-Z-carotenoids: cucumariaxanthins A, B, and C from the sea cucumber Cucumaria japonica” (J Nat Prod, 1996)
